Marks after values point to notes of the source that are not given here. Where a SMILES comes first, the peptide text is derived from it. Where no end group is shown, it is not given here. [ ]: non-standard residue; d: D form.
What was measured:
IL-1R/IL-1RacP receptor [1] = target: T1, IL-1R/IL-1RacP receptor (Sus scrofa, UniProt A0A5G2QSI4); assay: IL-1-induced PGE2 synthesis in piglet brain microvascular endothelial cells; assay type: cell-based, porcine; conditions: for Emax: Table 4, read-out: PGE2 synthesis in endothelial cells (porcine) Emax (%); for inhibition of IL-1-induced PGE2 synthesis, compared with parent API-101: alanine scan peptides 10^−6M, endothelial cells
T1 construct: endogenous in cells; host or cells: piglet brain microvascular endothelial cells
T1 sequence (A0A5G2QSI4 21-572): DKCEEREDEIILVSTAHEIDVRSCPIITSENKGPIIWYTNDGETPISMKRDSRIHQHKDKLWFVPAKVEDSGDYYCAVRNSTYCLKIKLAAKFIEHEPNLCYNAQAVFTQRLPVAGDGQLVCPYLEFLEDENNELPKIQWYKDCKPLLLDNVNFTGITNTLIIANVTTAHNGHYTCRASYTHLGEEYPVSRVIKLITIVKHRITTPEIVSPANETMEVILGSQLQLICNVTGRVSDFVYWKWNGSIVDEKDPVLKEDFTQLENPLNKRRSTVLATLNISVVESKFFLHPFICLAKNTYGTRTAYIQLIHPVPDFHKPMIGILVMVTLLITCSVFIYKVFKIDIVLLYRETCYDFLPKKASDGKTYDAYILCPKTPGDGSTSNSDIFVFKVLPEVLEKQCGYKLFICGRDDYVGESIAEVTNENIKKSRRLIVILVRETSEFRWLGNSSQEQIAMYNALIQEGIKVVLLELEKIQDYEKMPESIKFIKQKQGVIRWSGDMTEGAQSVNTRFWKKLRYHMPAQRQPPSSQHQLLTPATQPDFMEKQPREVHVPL
Method: (§1) It is well known in the art that IL-1 induces the synthesis of prostaglandin E2 (PGE2) in endothelial cells and/or chondrocytes in vitro. Therefore, human chondrocytes and piglet brain microvascular endothelial cells were pre-incubated 45-60 minutes at 37° C. with peptide API-101 (^10−6M) and human IL-1 (10 ng/ml) was added in the growing medium. After 24 hours of incubation, growth medium was collected and evaporated. PGE2 measurement was determined by RIA assay with a commercial kit (Cederlane).

IL-1R/IL-1RacP receptor [2] = target: T2, IL-1R/IL-1RacP receptor (Homo sapiens, UniProt P14778); assay: IL-1β-induced proliferation in TF-1 cells; assay type: cell-based; design: endogenous in cells; host or cells: TF-1 cells
T2 sequence (P14778 18-569): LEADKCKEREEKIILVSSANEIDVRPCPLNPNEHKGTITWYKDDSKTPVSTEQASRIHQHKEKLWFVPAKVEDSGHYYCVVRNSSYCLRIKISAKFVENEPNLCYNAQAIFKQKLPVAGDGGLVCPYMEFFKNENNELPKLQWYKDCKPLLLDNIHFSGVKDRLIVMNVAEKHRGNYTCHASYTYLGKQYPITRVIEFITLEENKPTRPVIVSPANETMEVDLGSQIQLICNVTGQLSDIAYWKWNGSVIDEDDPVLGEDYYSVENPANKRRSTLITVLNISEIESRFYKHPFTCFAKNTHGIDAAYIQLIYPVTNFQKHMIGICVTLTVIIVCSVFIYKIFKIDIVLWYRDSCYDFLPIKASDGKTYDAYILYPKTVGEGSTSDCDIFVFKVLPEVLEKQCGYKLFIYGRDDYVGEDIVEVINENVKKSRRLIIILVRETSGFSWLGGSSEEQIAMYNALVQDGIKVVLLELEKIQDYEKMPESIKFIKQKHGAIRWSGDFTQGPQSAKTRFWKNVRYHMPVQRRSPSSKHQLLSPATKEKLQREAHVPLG

[3] = TNBS-induced inflammatory bowel disease rat model, Example 6 (48 h; MPO, macroscopic, histologic); assay type: in vivo; design: macroscopic evaluation (median score): scale not given here
Method: Colon inflammation was induced by intra-rectal/colon administration of the hapten trinitrobenzene sulphonic acid (TNBS) on male Sprague-Dawley rats (175-200 g) (Bouma, Nature Rev, 2003; Morris, Gastroenterology, 1989). Animals were anesthetized with isoflurane and TNBS dissolved in 50% ethanol (vol/vol). 120 mg/ml (TNBS) was administered into the colon (total volume of 0.25 ml per rat) using a polyethylene tube (PE50). The cannula was inserted at 8 cm from the anus and kept in place for at least 15 min after TNBS administration in order to prevent expulsion of the solution. […] A third group (control) was not injected with TNBS. Six days after administration of TNBS, rats were killed by CO2 inhalation. Day 6 was chosen as an endpoint because by day 7 spontaneous tissue regeneration begins and this can mask the therapeutic effect of the tested peptide or peptide derivative. Colon was removed and examined macroscopically (adhesions, ulcerations, discoloration and bleeding) and histologically (neutrophil infiltration, epithelial injury, crypt distortion and ulcerations) (Anthony et al. 1995; Padol et al. 2000; Dieleman, L A, et al. 1997; Torres M I et al. 1999). Two animals per group were studied.
Colon inflammation was induced by intra-rectal/colon administration of the hapten trinitrobenzene sulphonic acid (TNBS) as described in Example 4. Two hours prior to TNBS administration, peptides, peptidomimetics or 0.9% saline were administered intravenously (iv) via the caudal vein (various concentrations of mg/kg/d) (total volume of 0.3 ml). […] A third group (control) was not injected with TNBS. […] Also, these IL-1R antagonists were given twice a day (BID); Remicade® (anti-TNFα) (10 mg/kg) and dexamethasone (0.75 mg/kg) were administered intraperitoneally but only once a day (qd). The intrarectal administration (ir) of 101.10, 101.113 (1 and 2.5 mg/kg), and 5-ASA (50 mg/kg) was done one hour after TNBS administration, and twice a day, except for 5-ASA which is once a day. Finally, 101.10 (1-5 mg/kg) was also administered orally by gavage (po), twice a day. Forty-eight hours after administration of TNBS, rats were killed by CO2 inhalation. Colon was removed and assessed macroscopically (adhesions, ulcerations, discoloration and bleeding) and histologically (neutrophil infiltration, epithelial injury, crypt distortion and ulcerations). One to seven animals per group were studied, according to treatments. Myeloperoxidase (MPO) activity was measured on tissue lysates.

IL-1R/IL-1RacP receptor [4] = assay: Ex vivo vasomotricity: reversal of IL-1β-induced vasodilation of piglet pial vessels; conditions: IL-1β 75 ng/ml
Method: Ex vivo vasomotor response on brain vessels was performed as described (Li et al., 1996; Hou et al., 2000; Hou et al., 2001; Hou et al., 2003). Brains were removed from Yorkshire piglets. Slices of cortex exposing the pial vessels were pinned to a wax base of a 20 ml bath containing Krebs buffer (pH 7.4) equilibrated with 95% O2, 5% CO2 and maintained at 37° C. Microvessels were visualized and recorded using a video camera mounted on a dissecting microscope. Vascular diameter was measured using a digital image analyzer. Vascular diameter was recorded before and after topical application of pre-constricting agent, U46619 (10^−7 M). After stabilization of preparation, the ligand (IL-1β, 75 ng/ml) was added until stable vasodilation was detected. Peptides were subsequently added at different concentrations from 10^−10 to 10^−5 M. Reversal of vasodilatation was visualized and measured as previously described (Hou, et al. 2000; Hou et al. 2001; Hou et al. 2003); triplicate measurements were conducted on 2 animals.

IL-1R/IL-1RacP receptor [5] = target: T2, IL-1R/IL-1RacP receptor; assay: IL-1-induced PGE2 synthesis in human chondrocytes; assay type: cell-based; design: endogenous in cells; conditions: alanine scan peptides 10^−6M
Method: as §1

[6] = Table 4: TF-1 proliferation and PGE2 synthesis in endothelial cells, derivatives of 101.107
[7] = Continuous infusion (ip), 8.0 mg/kg/d
[8] = Table 5, derivatives of 101.113
[9] = Intermittent injection (ip), 10.0-qd mg/kg/d
[10] = Intrarectal administration, 50.0-qd mg/kg/d

Molecule: CC(C)C[C@@H](NC(=O)[C@@H](CCC(=O)O)NC(=O)[C@H]1CCCN1C(=O)[C@H](NC(=O)[C@@H](Cc1c[nH]c2ccccc12)NC(=O)[C@H](N)CCCNC(=N)N)[C@H](C)O)C(=O)N[C@H](C)C(N)=O [API-101.116, RWTPELA] (HELM PEPTIDE1{[dR].[dW].[dT].[dP].[dE].[dL].[dA].[am]}$$$$V2.0; N-terminus and C-terminus assumed)
- Emax (IL-1R/IL-1RacP receptor [1]): 45%

Molecule: CC(C)C[C@@H](NC(=O)[C@@H](CCC(=O)O)NC(=O)[C@H]1CCCN1C(=O)[C@H](NC(=O)[C@@H](Cc1ccc(O)cc1)NC(=O)[C@H](N)CCCN)[C@H](C)O)C(=O)N[C@H](C)C(N)=O [API-101.115, XYTPELA (X = Ornithine)] (HELM PEPTIDE1{[NCCC[C@@H](N)C(=O)[*:2]].[dY].[dT].[dP].[dE].[dL].[dA].[am]}$$$$V2.0; N-terminus and C-terminus assumed)
- activity of the peptide, in words (IL-1R/IL-1RacP receptor [2]; [6]): maintains its activity

Molecule: XRYTPELA (X = Acetyl) (Ac-[dR][dY][dT][dP][dE][dL][dA]) [API-101.121]
- activity of the peptide, in words (IL-1R/IL-1RacP receptor [2]; [6]): completely lost

Molecule: Kineret: natural soluble receptor IL-1Ra mimetic, Anakinra, developed by Amgen [reference compound]
- MPO (% of TNBS + Saline) [3, 7]: 63 % of TNBS + Saline
- histologic evaluation (median score) [3, 7]: 2 (Small ulcer (<5 crypts))

Molecule: XYTPEL (X = Ornithine) [API-101.126]
- activity of the peptide, in words (IL-1R/IL-1RacP receptor [2]; [8]): little or no activity

Molecule: KYTPEL ([dK][dY][dT][dP][dE][dL]) [API-101.133]
- activity of the peptide, in words (IL-1R/IL-1RacP receptor [2]; [8]): little or no activity

Molecule: CC(C)C[C@@H](NC(=O)[C@@H](CCC(=O)O)NC(=O)[C@H]1CCCN1C(=O)[C@H](NC(=O)[C@@H](Cc1ccc(O)cc1)NC(=O)[C@@H](N)CCCNC(=N)N)[C@H](C)O)C(N)=O [API-101.135, *RYTPEL]
- activity of the peptide, in words (IL-1R/IL-1RacP receptor [2]; [8]): lowered but not lost completely

Molecule: CC(C)C[C@@H](NC(=O)[C@@H](CC(=O)O)NC(=O)[C@H]1CCCN1C(=O)[C@H](NC(=O)[C@@H](Cc1ccc(O)cc1)NC(=O)[C@H](N)CCCNC(=N)N)[C@H](C)O)C(=O)N[C@H](C)C(N)=O [API-101.117, RYTPDLA] (HELM PEPTIDE1{[dR].[dY].[dT].[dP].[dD].[dL].[dA].[am]}$$$$V2.0; N-terminus and C-terminus assumed)
- Emax (IL-1R/IL-1RacP receptor [1]): 100%

Molecule: CC(C)C[C@@H](NC(=O)[C@@H](CCC(=O)O)NC(=O)[C@H]1CCCN1C(=O)[C@H](NC(=O)[C@@H](Cc1c[nH]c2ccccc12)NC(=O)[C@H](N)CCCNC(=N)N)[C@H](C)O)C(N)=O [API-101.128, RWTPEL]
- Emax (IL-1R/IL-1RacP receptor [2]; TF-1, Table 5): 100%
- activity of the peptide, in words (IL-1R/IL-1RacP receptor [2]; [8]): relatively decreased

Molecule: CC(C)C[C@@H](NC(=O)[C@@H](CCC(=O)O)NC(=O)[C@H]1CCCN1C(=O)[C@H](NC(=O)[C@@H](Cc1ccc(O)cc1)NC(=O)[C@H](N)CCCCN)[C@H](C)O)C(=O)N[C@H](C)C(N)=O [API-101.114, KYTPELA] (HELM PEPTIDE1{[dK].[dY].[dT].[dP].[dE].[dL].[dA].[am]}$$$$V2.0; N-terminus and C-terminus assumed)
- Emax (IL-1R/IL-1RacP receptor [1]): 50%
- activity of the peptide, in words (IL-1R/IL-1RacP receptor [2]; [6]): maintains its activity

Molecule: C[C@@H]1C[C@H]2[C@@H]3CCC4=CC(=O)C=C[C@]4(C)[C@@]3(F)[C@@H](O)C[C@]2(C)[C@@]1(O)C(=O)CO [Dexamethasone, dexamethasone, reference compound]
- MPO (% of TNBS + Saline) ([3]; Intermittent injection (ip), 0.75-qd mg/kg/d): 60 % of TNBS + Saline

Molecule: APRATVELA [API-101.3]
- reversal of IL-1β-induced vasodilation (IL-1R/IL-1RacP receptor [4]): reversed the vasodilation

Molecule: CC(C)C[C@@H](NC(=O)[C@@H](CCC(=O)O)NC(=O)[C@H]1CCCN1C(=O)[C@H](NC(=O)[C@@H](Cc1ccc(O)cc1)NC(=O)[C@H](N)CCCNC(N)=O)[C@H](C)O)C(N)=O [API-101.134, XYTPEL (X = Citrulline)]
- activity of the peptide, in words (IL-1R/IL-1RacP receptor [2]; [8]): little or no activity

Molecule: Remicade: anti-TNFα [reference compound]
- MPO (% of TNBS + Saline) [3, 9]: 88 ± 41 % of TNBS + Saline
- histologic evaluation (median score) [3, 9]: 2.5 (1-3.75)**
- macroscopic evaluation (median score) [3, 9]: 0.5

Molecule: APRYTVEAA [API-101.7]
- inhibition of IL-1-induced PGE2 synthesis, compared with parent API-101 (IL-1R/IL-1RacP receptor [1]): lost almost all activity
- inhibition of IL-1-induced PGE2 synthesis, compared with parent API-101 (IL-1R/IL-1RacP receptor [5]): lost almost all activity

Molecule: Nc1ccc(O)c(C(=O)O)c1 [5-ASA, reference compound]
- MPO (% of TNBS + Saline) [3, 10]: 49 % of TNBS + Saline
- histologic evaluation (median score) [3, 10]: 3.3
- macroscopic evaluation (median score) [3, 10]: 1.5

Molecule: APRYTAELA [API-101.5]
- inhibition of IL-1-induced PGE2 synthesis, compared with parent API-101 (IL-1R/IL-1RacP receptor [1]): lost almost all activity
- inhibition of IL-1-induced PGE2 synthesis, compared with parent API-101 (IL-1R/IL-1RacP receptor [5]): lost almost all activity

Molecule: CC(C)C[C@@H](NC(=O)[C@@H](CCC(=O)O)NC(=O)[C@H]1CCCN1C(=O)[C@H](NC(=O)[C@@H](Cc1ccccc1)NC(=O)[C@H](N)CCCNC(=N)N)[C@H](C)O)C(N)=O [API-101.132, RFTPEL] (HELM PEPTIDE1{[dR].[dF].[dT].[dP].[dE].[dL].[am]}$$$$V2.0; N-terminus and C-terminus assumed)
- activity of the peptide, in words (IL-1R/IL-1RacP receptor [2]; [8]): relatively decreased

Molecule: RFVPELA [API-101.127]
- activity of the peptide, in words (IL-1R/IL-1RacP receptor [2]; [8]): completely abolished the activity

Source: patent publication US8618054B2, “Interleukin-1 receptor antagonists, compositions, and methods of treatment” (Valorisation-Rechereche Société en Commandite, priority 2004, dated 2013)
